In patent US20120282187A1 (BOEHRINGER INGELHEIM INTERNATIONAL GMBH, priority 2008, published 2012):
Read-outs that look alike come from different tables or passages of the source.

Legend:
[1] = system: patients who have nonvalvular atrial fibrillation; conditions: VKAs, such as warfarin; cited from earlier work
[2] = system: AF patients; conditions: SPORTIF III, cited from earlier work
[3] = system: AF patients; conditions: SPORTIF V, cited from earlier work
[4] = system: AF patients; conditions: ACTIVE W; cited from earlier work
[5] = system: patients with atrial fibrillation at risk of stroke; assay: RELY clinical trial (Randomized Evaluation of Long-term Anticoagulation Therapy); format: in vivo
From the text: The primary study outcome was stroke or systemic embolism. The primary safety outcome was major hemorrhage. Secondary outcomes were stroke, systemic embolism and death. […] All other bleeding was considered minor.
All analyses were based on intention-to-treat.

[6] = ximelagatran 36 mg b.i.d. vs warfarin

In the case of `CC(=O)CC(c1ccccc1)c1c(O)c2ccccc2oc1=O` (racemic) [Warfarin, 3-(α-acetonylbenzyl)4-hydroxycoumarin], the “reduction of the risk of stroke compared to control” value [1] is listed as 64%, the “Myocardial Infarction” value ([2]; Warfarin vs. Ximelagatran) is listed as 0.6% (warfarin) and the “Stroke and systemic embolism (per 100 patient years)” value [2, 6] is listed as 2.3% (warfarin). For the same molecule, the “Myocardial Infarction” value ([3]; Warfarin vs. Ximelagatran) was 1.4% (warfarin), the “Stroke and systemic embolism (per 100 patient years)” value [3, 6] was 1.2% (warfarin) and the “Myocardial Infarction” value [4] was 0.6% (warfarin). For the same molecule, the “Stroke and systemic embolism (per 100 patient years)” value [4] was 1.5% (warfarin), the “mean time in therapeutic range” value ([5]; INR 2.0 to 3.0, method of Rosendaal) was 64% and the “Stroke, systemic embolism, pulmonary embolism, myocardial infarction death or major bleed, Rate” value ([5]; net benefit, warfarin arm) was 7.99 /100 Person Years. For the same molecule, the “ALT or AST >3xULN” value ([5]; warfarin arm) was 2.1%, the “ALT or AST >3xULN with concurrent bilirubin >2xULN” value ([5]; warfarin arm) was 0.4% and the “ALT or AST >3xULN with concurrent bilirubin >2xULN, number” value ([5]; warfarin arm) was 22. The “ALT or AST >3xULN, number” value ([5]; warfarin arm) was 126, the “Adverse Event: Arthralgia” value ([5]; warfarin arm) was 5.5% and the “Adverse Event: Arthralgia, number” value ([5]; warfarin arm) was 328. The “Adverse Event: Atrial fibrillation” value ([5]; warfarin arm) was 5.4%, the “Adverse Event: Atrial fibrillation, number” value ([5]; warfarin arm) was 326 and the “Adverse Event: Back pain” value ([5]; warfarin arm) was 5.5%. The “Adverse Event: Back pain, number” value ([5]; warfarin arm) was 331, the “Adverse Event: Chest pain” value ([5]; warfarin arm) was 5.7% and the “Adverse Event: Chest pain, number” value ([5]; warfarin arm) was 342. The “Adverse Event: Cough” value ([5]; warfarin arm) was 5.8%, the “Adverse Event: Cough, number” value ([5]; warfarin arm) was 345 and the “Adverse Event: Diarrhea” value ([5]; warfarin arm) was 5.5%. The “Adverse Event: Diarrhea, number” value ([5]; warfarin arm) was 327, the “Adverse Event: Dizziness” value ([5]; warfarin arm) was 9.3% and the “Adverse Event: Dizziness, number” value ([5]; warfarin arm) was 555. For the same molecule, the “Adverse Event: Dyspepsia” value ([5]; warfarin arm) was 1.4%, the “Adverse Event: Dyspepsia, number” value ([5]; warfarin arm) was 83 and the “Adverse Event: Dyspnoea” value ([5]; warfarin arm) was 9.2%. For the same molecule, the “Adverse Event: Dyspnoea, number” value ([5]; warfarin arm) was 550, the “Adverse Event: Fatigue” value ([5]; warfarin arm) was 5.9% and the “Adverse Event: Fatigue, number” value ([5]; warfarin arm) was 353. For the same molecule, the “Adverse Event: Nasopharyngitis” value ([5]; warfarin arm) was 5.5%, the “Adverse Event: Nasopharyngitis, number” value ([5]; warfarin arm) was 327 and the “Adverse Event: Peripheral edema” value ([5]; warfarin arm) was 7.6%. The “Adverse Event: Peripheral edema, number” value ([5]; warfarin arm) was 453, the “Adverse Event: Upper respiratory tract infection” value ([5]; warfarin arm) was 5.0% and the “Adverse Event: Upper respiratory tract infection, number” value ([5]; warfarin arm) was 297. The “Adverse Event: Urinary tract infection” value ([5]; warfarin arm) was 5.3%, the “Adverse Event: Urinary tract infection, number” value ([5]; warfarin arm) was 315 and the “All Death, Rate” value ([5]; warfarin arm) was 4.13 /100 Person Years. The “Any Major Bleeding, Rate” value ([5]; warfarin arm) was 3.46 /100 Person Years, the “Extracranial Bleeding, Rate” value ([5]; warfarin arm) was 2.73 /100 Person Years and the “First Hospitalization, Rate” value ([5]; warfarin arm) was 27.5 /100 Person Years. For the same molecule, the “Intracranial Bleeding, Rate” value ([5]; warfarin arm) was 0.72 /100 Person Years, the “Major Bleeding, Life threatening, Rate” value ([5]; warfarin arm) was 1.80 /100 Person Years and the “Major Bleeding, Other Major, Rate” value ([5]; warfarin arm) was 1.80 /100 Person Years. For the same molecule, the “Major gastro-intestinal Bleeding, Rate” value ([5]; warfarin arm) was 1.03 /100 Person Years, the “Major or Minor Bleeding, Rate” value ([5]; warfarin arm) was 23.92 /100 Person Years and the “Minor Bleeding, Rate” value ([5]; warfarin arm) was 21.03 /100 Person Years. The “Mortality rates (death from any cause)” value ([5]; warfarin arm) was 4.13 % per year, the “Myocardial Infarction, Rate” value ([5]; warfarin arm) was 0.54 /100 Person Years and the Myocardial infarction rate ([5]; warfarin arm) was 0.54 % per year. The “Non-disabling Stroke Modified Rankin 0-2, Rate” value ([5]; warfarin arm) was 0.58 /100 Person Years, the “Pulmonary embolism, Rate” value ([5]; warfarin arm) was 0.09 /100 Person Years and the “Rates of hemorrhagic stroke” value ([5]; warfarin arm) was 0.38 % per year. The “Rates of major hemorrhage / major bleeding” value ([5]; warfarin arm) was 3.46 % per year, the “Reason for discontinuation: Gastrointestinal bleeding” value ([5]; warfarin arm) was “XXX (0.9) %” and the “Reason for discontinuation: Gastrointestinal disorders (including pain, vomiting and diarrhea)” value ([5]; warfarin arm) was “XXX (0.8) %”. The “Reason for discontinuation: Outcome event” value ([5]; warfarin arm) was “XXX (2.2) %”, the “Reason for discontinuation: Patient decision” value ([5]; warfarin arm) was “XXX (6.2) %” and the “Reason for discontinuation: SAE” value ([5]; warfarin arm) was 1.6%. For the same molecule, the “Reason for discontinuation: SAE, number” value ([5]; warfarin arm) was 95, the “Stroke or systemic embolism, Rate” value ([5]; warfarin arm) was 1.70 /100 Person Years and the “Stroke, Hemorrhagic, Rate” value ([5]; warfarin arm) was 0.38 /100 Person Years. The “Stroke, Rate” value ([5]; warfarin arm) was 1.58 /100 Person Years, the “Study Drug Discontinuation At one year” value ([5]; warfarin arm) was “XXXX (10) %” and the “Study Drug Discontinuation At two years” value ([5]; warfarin arm) was “XXXX (19) %”. The “Vascular Death, Rate” value ([5]; warfarin arm) was 2.69 /100 Person Years, the “hepatobiliary disorders (AE)” value ([5]; warfarin arm) was 2.2% and the “hepatobiliary disorders (AE), number” value ([5]; warfarin arm) was 132. For the same molecule, the “hepatobiliary disorders (SAE)” value ([5]; warfarin arm) was 0.4%, the “hepatobiliary disorders (SAE), number” value ([5]; warfarin arm) was 25 and the “net benefit-risk outcome (major vascular events, major bleeding and death) rate” value ([5]; warfarin arm) was 7.99 % per year. The “rates of discontinuation at 2.5 years” value ([5]; warfarin arm) was 19%, the “stroke or systemic embolism (primary outcome) rate” value ([5]; warfarin arm) was 1.70 % per year and the “Study Drug Discontinuation At one year” value ([5]; warfarin arm, listed as warfarin) was 10%.
